Test results published in US8227625B2, “4,5,6,7-tetrahydrobenzo[b]thiophene derivatives and their use as sigma receptor ligands” (Laboratorios del Dr. Esteve, S.A., priority 2006, dated 2012).

Legend:
Sigma-1 receptor = biological target: T1, Sigma-1 receptor (Cavia porcellus, UniProt Q60492); assay: Sigma-1 receptor radioligand binding assay, [3H](+)-pentazocine, guinea pig brain membranes; settings: [3H](+)-pentazocine 0.5 nM; for % Binding σ1 10^−7M: compound at 10^−7M; for % Binding σ1 10^−8M: compound at 10^−8M
T1 construct: from tissue; host or cells: guinea pig brain membranes
Protocol: Brain membrane preparation and binding assays for the al-receptor were performed as described (DeHaven-Hudkins et al., 1992) with some modifications. In brief, guinea pig brains were homogenized in 10 vols. (w/v) of Tris-HCl 50 mM 0.32 M sucrose, pH 7.4, with a Kinematica Polytron PT 3000 at 15000 r.p.m. for 30 s. The homogenate was centrifuged at 1000 g for 10 min at 4° C. and the supernatants collected and centrifuged again at 48000 g for 15 min at 4° C. The pellet was resuspended in 10 volumes of Tris-HCl buffer (50 mM, pH 7.4), incubated at 37° C. for 30 min, and centrifuged at 48000 g for 20 min at 4° C. Following this, the pellet was resuspended in fresh Tris-HCl buffer (50 mM, pH 7.4) and stored on ice until use.
Each assay tube contained 10 μL of [^3H](+)-pentazocine (final concentration of 0.5 nM), 900 μL of the tissue suspension to a final assay volume of 1 mL and a final tissue concentration of approximately 30 mg tissue net weight/mL. Non-specific binding was defined by addition of a final concentration of 1 μM haloperidol. All tubes were incubated at 37° C. for 150 min before termination of the reaction by rapid filtration over Schleicher & Schuell GF 3362 glass fibre filters [previously soaked in a solution of 0.5% polyethylenimine for at least 1 h]. Filters were then washed with four times with 4 mL of cold Tris-HCl buffer (50 mM, pH 7.4). Following addition of scintillation cocktail, the samples were allowed to equilibrate overnight. The amount of bound radioactivity was determined by liquid scintillation spectrometry using a Wallac Winspectral 1414 liquid scintillation counter. Protein concentrations were determined by the method of Lowry et al. (1951).

T1 sequence (Q60492 whole entry): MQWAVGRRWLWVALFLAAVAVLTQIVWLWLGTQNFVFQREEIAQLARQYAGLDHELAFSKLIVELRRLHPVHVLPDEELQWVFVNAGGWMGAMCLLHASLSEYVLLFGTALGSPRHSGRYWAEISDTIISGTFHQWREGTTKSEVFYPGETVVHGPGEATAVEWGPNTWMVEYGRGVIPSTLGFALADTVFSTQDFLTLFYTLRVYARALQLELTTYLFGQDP

| SMILES | % Binding σ1 10^−7M (Sigma-1 receptor) | % Binding σ1 10^−8M (Sigma-1 receptor) | melting point |
| --- | --- | --- | --- |
| CN(C/C=C1\CCCc2sccc21)Cc1ccccc1 [Example 3, (E)-N-benzyl-2-(6,7-dihydrobenzo[b]thien-4(5H)-ylidene)-N-methylethanamine] | 70.6% | 27.3% | – |
| C(/CN1CCC(c2ccccc2)CC1)=C1/CCCc2sccc21 [Example 5, (E)-1-(2-(6,7-dihydrobenzo[b]thien-4(5H)-ylidene)ethyl)-4-phenylpiperidine] | 84.5% | 32.8% | – |
| CN(C/C=C1\CCCc2sccc21)CCc1ccccc1 [Example 7, (E)-N-(2-(6,7-dihydrobenzo[b]thien-4(5H)-ylidene)ethyl)-N-methyl-2-phenylethanamine] | 89.3% | 48.6% | – |
| C(/CN1CCCCC1)=C1/CCCc2sccc21 [Example 9, (E)-1-(2-(6,7-dihydrobenzo[b]thien-4(5H)-ylidene)ethyl)piperidine] | 23% | 5% | – |
| CC1CCN(C/C=C2\CCCc3sccc32)CC1 [Example 11, (E)-1-(2-(6,7-dihydrobenzo[b]thien-4(5H)-ylidene)ethyl)-4-methylpiperidine] | 70.9% | 18.2% | – |
| O=C(O)C(=O)O.O=C1N(c2ccc(C(F)(F)F)cc2)CCC12CCN(CCC1CCCc3sccc31)CC2 (centres unmarked) [Example 89, 2-(4-trifluoromethylphenyl)-8-[2-(4,5,6,7-tetrahydrobenzo[b]thiophen-4-yl)-ethyl]-2,8-diazaspiro[4.5]decan-1-one oxalate] | – | – | 166 to 168 °C |
| Brc1cccc2c1CCN(CCC1CCCc3sccc31)C2.O=C(O)C(=O)O (centres unmarked) [Example 91, 5-bromo-2-(2-(4,5,6,7-tetrahydrobenzo[b]thiophen-4-yl)ethyl)-1,2,3,4-tetrahydroisoquinoline oxalate] | – | – | 167 to 168 °C |
| N#Cc1ccc2c(c1)CN(CCC1CCCc3sccc31)CC2.O=C(O)C(=O)O (centres unmarked) [Example 93, 2-(2-(4,5,6,7-tetrahydrobenzo[b]thiophen-4-yl)ethyl)-1,2,3,4-tetrahydroisoquinoline-7-carbonitrile oxalate] | – | – | 180 to 181 °C |
| O=C(O)C(=O)O.O=C1N(c2ccc(F)cc2)CCC12CCN(CCC1CCCc3sccc31)CC2 (centres unmarked) [Example 95, 2-(4-Fluorophenyl)-8-[2-(4,5,6,7-tetrahydrobenzo[b]thiophen-4-yl)-ethyl]-2,8-diazaspiro[4.5]decan-1-one oxalate] | – | – | 195 to 199 °C |
